Here are results for three compounds from patent US5770617A, “Terbenzimidazoles useful as antifungal agents” (Rutgers, The State University of New Jersey, priority 1997, dated 1998).

“Also recorded” adds a separate entry of the source.

In data set [1] the target is T1, mammalian DNA topoisomerase I (Homo sapiens, UniProt P11387).
T1 sequence (P11387 1-765): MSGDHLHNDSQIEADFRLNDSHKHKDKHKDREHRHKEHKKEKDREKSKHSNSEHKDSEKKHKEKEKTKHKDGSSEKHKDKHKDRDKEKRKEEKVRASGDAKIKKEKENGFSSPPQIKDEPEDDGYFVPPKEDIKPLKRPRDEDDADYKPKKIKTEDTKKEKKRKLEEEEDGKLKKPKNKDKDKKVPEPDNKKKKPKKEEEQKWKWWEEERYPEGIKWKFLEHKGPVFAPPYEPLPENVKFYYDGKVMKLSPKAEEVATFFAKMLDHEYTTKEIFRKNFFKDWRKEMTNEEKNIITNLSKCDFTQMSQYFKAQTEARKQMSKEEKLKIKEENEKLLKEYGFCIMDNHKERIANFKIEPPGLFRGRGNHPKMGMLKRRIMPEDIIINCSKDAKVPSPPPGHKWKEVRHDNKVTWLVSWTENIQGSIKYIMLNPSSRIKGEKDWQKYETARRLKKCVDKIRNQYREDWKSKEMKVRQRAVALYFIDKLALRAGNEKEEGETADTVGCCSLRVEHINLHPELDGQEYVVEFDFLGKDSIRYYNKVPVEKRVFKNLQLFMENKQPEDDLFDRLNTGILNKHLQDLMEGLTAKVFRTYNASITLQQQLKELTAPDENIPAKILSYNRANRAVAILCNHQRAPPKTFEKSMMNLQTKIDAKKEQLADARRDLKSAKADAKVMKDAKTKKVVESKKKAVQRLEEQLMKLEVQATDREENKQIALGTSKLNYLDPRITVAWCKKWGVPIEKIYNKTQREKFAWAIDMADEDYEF
The conditions noted are these: cited from earlier work.

Data set [2] has as its system yeast cells expressing yeast topoisomerase I. Kind of data set: Yeast cytotoxicity assay, yeast topoisomerase I. In kind it is cell-based, S. cerevisiae. An excerpt:
(§1) The topoisomerase I-specific in vivo cytotoxicity assay was adapted from A. M. Knab et al., J. Biol. Chem., 268, 22322 (1993). In this system, various topoisomerase I genes or cDNAs cloned into the single-copy yeast plasmid vector (YCpGAL1; Knab et al., cited above) are expressed under the control of the GAL1 promoter in the JN2-134 strain of S. cerevisiae (MAT, rad52::Leu2, trp1, ade2-1, his7, ura3-52, ise1, top1-1, and leu2; M. A. Bjornsti et al., Cancer Res., 49, 6318 (1989)). The topoisomerase I gene or cDNA constructs in the vector are, respectively, the wild-type yeast topoisomerase I gene (YCpGAL-ScTOP1; need cite (1989)), a nonfunctional topoisomerase I gene where the active site tyrosine-727 is mutated to phenylalanine (YCPGAL1-Sctop1Y727; A. M. Knab et al., J. Biol. Chem., 268, 22322 (1993)), and the wild-type human topoisomerase I cDNA (YCp-GAL-hTOP1; M. A. Bjornsti et al., Cancer Res., 49, 6318 (1989)).
(§2) To qualitatively test the cytotoxicity and the topoisomerase I specificity of the drugs, yeast cells containing the specified plasmid were grown in dropout medium supplemented with uracil, 2% galactose, and the drug being tested.

For data set [3], the system named is yeast cells expressing human topoisomerase I. In words: Yeast cytotoxicity assay, human topoisomerase I. It is filed as cell-based, S. cerevisiae.
Description: as §1, §2

Data set [4] concerns the target T2, Aspergillus topoisomerase I (Aspergillus nidulans, UniProt Q5BGS7).
T2 construct: about 105 kDa by phosphate transfer
T2 sequence (Q5BGS7 1-871): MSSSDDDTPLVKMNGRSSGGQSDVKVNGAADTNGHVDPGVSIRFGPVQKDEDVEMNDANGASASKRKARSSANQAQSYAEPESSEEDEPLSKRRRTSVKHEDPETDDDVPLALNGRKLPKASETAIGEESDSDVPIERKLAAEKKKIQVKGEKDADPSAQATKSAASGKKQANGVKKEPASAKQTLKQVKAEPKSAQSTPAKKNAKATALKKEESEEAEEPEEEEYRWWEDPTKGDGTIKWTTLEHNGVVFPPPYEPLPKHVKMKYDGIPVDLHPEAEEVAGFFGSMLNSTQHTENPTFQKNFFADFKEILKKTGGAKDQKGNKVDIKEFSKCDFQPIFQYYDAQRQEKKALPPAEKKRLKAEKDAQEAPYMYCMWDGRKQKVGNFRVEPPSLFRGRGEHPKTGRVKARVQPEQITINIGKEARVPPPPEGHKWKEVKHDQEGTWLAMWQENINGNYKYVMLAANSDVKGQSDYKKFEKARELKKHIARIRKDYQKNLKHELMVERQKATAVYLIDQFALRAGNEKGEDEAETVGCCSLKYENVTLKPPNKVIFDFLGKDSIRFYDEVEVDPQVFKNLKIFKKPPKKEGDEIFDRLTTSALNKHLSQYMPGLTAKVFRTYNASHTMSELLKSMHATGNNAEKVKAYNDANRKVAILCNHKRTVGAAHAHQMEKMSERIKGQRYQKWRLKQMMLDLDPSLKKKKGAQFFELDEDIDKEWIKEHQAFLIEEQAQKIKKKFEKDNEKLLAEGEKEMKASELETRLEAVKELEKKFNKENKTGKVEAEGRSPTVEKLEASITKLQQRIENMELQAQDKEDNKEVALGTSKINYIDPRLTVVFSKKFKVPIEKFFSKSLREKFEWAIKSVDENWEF
In words: Topoisomerase I cleavage assay, Aspergillus enzyme. In kind it is biochemical. The conditions noted are these: DNA cleavage assay. How it is done:
Two liters of YG medium (0.5% yeast extract and 2% glucose) were inoculated with approximately 5×10^8 conidia/ml. After 16 hours of growth at 37° C., the mycelia were collected, washed with Buffer I (50 mM Tris-HCl, pH 7.7, 1 mM EDTA, 1 mM EGTA, 10% glycerol, 1 mM phenylmethylsulfonyl fluoride and 1 mM 2-mercaptoethanol), and quickly chilled in liquid nitrogen. The frozen mycelia (approximately 20 grams) were ground to powder and resuspended in 300 ml of Buffer I. The lysate was centrifuged at 10K rpm in a Sorval HB3 Rotor for 15 minutes to remove cell debris. The supernatant was made 6% in polyethylene glycol (v/v) and 1M NaCl. After one hour on ice with gentle stirring, the solution was centrifuged at 14K rpm in a Sorvall Rotor for 30 minutes to remove nucleic acids.
Subsequent steps in purification were the same as described previously for purification of recombinant human DNA topoisomerase I (B. Gatto et al., Cancer Res., 56, 2795 (1996)). Briefly, the supernatant was chromatographed directly onto a hydroxyapatite Bio-gel HTP (BioRad Laboratories, Richmond, Calif.) column. Fractions containing relaxation activity were pooled, diluted and then loaded onto a BioRex70 column (BioRad Laboratories, Richmond, Calif.). The column was developed with a linear gradient from 0.2 to 1M KCl. The peak fractions were pooled and dialyzed overnight at 4° C. against 30 mM potassium phosphate, 50% glycerol (v/v), 0.5 mM EDTA, and 1 mM DTT. Recombinant human topoisomerase I was purified from Escherichia coli BL21 (DE3) harboring PET1B as described previously (Gatto et al., Cancer Res., 56, 2795 (1996)).
DNA topoisomerase I cleavage assays were performed as described by Y.-H. Hsiang et al., J. Biol. Chem., 260, 14873 (1985). YEpG DNA was linearized with BamHI and then 3 '-end-labeled with Klenow polymerase and α[-^32 P]dCTP. Following phenol extraction and ethanol precipitation, the labeled DNA was resuspended in 10 mM Tris, pH 8.0, and 1 mM EDTA. The DNA cleavage assay was done in a reaction mixture (20 μl) containing 40 mM Tris-HCl, pH 7.8, 100 mM KCl, 10 mM MgCl2, 0.5 mM dithiothreitol, 0.5 mM EDTA, 30 μg/ml bovine serum albumin, 20 ng of labeled YEpG DNA, and […] of Aspergillus or human topoisomerase I diluted to various extents. Following incubation at 23° C. for 15 minutes, the reactions were terminated by the addition of SDS (final concentration 1%) and proteinase K (final concentration 200 μg/ml). Proteinase K treatment continued at 37° C. for another 1 hour. The terminated reactions were either alkali-denatured and then loaded (alkaline loading) or loaded directedly in neutral loading buffer (neutral loading) onto a 1% agarose gel in neutral TPE electrophoresis solution. Gel drying and autoradiography were performed as described by Hsiang et al., cited above.

Data set [5] has as its system yeast cells expressing nonfunctional yeast topoisomerase I. In words: Yeast cytotoxicity assay, nonfunctional yeast topoisomerase I. In kind it is cell-based, S. cerevisiae.
Description: as §1, §2

In data set [6] the target is T3, human topoisomerase I (Homo sapiens, UniProt P11387).
T3 construct: made in house; host or cells: Escherichia coli BL21 (DE3) harboring PET1B
T3 sequence (P11387 1-765): T1 sequence (P11387 1-765)
The conditions noted are these: cited from earlier work.

Regarding `COc1ccc(-c2nc3ccc([N+](=O)[O-])cc3[nH]2)cc1` [QS/II/9], in data set [1], the “inhibition (poisoning) of mammalian DNA topoisomerase I, previous studies” value is on record as “inhibitors (poisons)”. Further, the “cytotoxicity to yeast cells expressing functional yeast topoisomerase I” value in data set [2] is recorded as “not cytotoxic”. For the same compound, the “cytotoxicity to yeast cells expressing human topoisomerase I” value in data set [3] is on record as “highly cytotoxic”. The “inhibition (poisoning) of Aspergillus topoisomerase I, in words” value (“inhibition (poisoning) … in words” below) in data set [4] was “None of the mono-benzimidazoles, including QS/II/50, QS/II/51, QS/II/59A, an QS/II/9, exhibited any inhibitory effect”. The “cytotoxicity to yeast cells expressing nonfunctional yeast topoisomerase I” value in data set [5] is reported as “not cytotoxic”.

On to `O=[N+]([O-])c1ccc2nc(-c3ccc(O)cc3)[nH]c2c1` [QS/II/51], for which the “inhibition (poisoning) of mammalian DNA topoisomerase I, previous studies” value in data set [1] was “inhibitors (poisons)”. Further, the “inhibition (poisoning) … in words” value in data set [4] is “None of the mono-benzimidazoles, including QS/II/50, QS/II/51, QS/II/59A, an QS/II/9, exhibited any inhibitory effect”.

In the case of `COc1cc2c[n+](C)c3c4cc5c(cc4ccc3c2cc1OC)OCO5` [nitidine], in data set [6], the “inhibition of human topoisomerase I, in words (known / previously disclosed)” value is reported as “highly potent inhibitors”. The “cytotoxicity to yeast cells expressing functional yeast topoisomerase I” value in data set [2] was “not cytotoxic”. For the same compound, the “cytotoxicity to yeast cells expressing human topoisomerase I” value in data set [3] was “highly cytotoxic”. Besides, in data set [4], the “inhibition (poisoning) … in words” value is “completely resistant; also recorded: did not inhibit Aspergillus topoisomerase I to any significant extent”. Moreover, in data set [5], the “cytotoxicity to yeast cells expressing nonfunctional yeast topoisomerase I” value is “not cytotoxic”.
